Data taken from patent US12371472B2, “Multimeric IL-15 soluble fusion molecules and methods of making and using same” (Altor BioScience, LLC., priority 2010, dated 2025).
Read-outs that look alike come from different tables or passages of the source.

How the values were obtained:
[1] = system: 5T33P myeloma cells; test: 5T33P murine myeloma model; settings: single i.v. ALT-803 0.2 mg/kg or molar equivalent IL-15, well-established tumors, four days after treatment
Method: BM cells were collected 4 days after study drug treatments. […] The plotted values represent the mean±SE; P values are presented. […] Female C57BL/6NHsd mice (n=5/group) were injected i.v. with murine 5T33P myeloma cells (1×10^7 cells/mouse) on day 0. […] Control mice were treated with PBS on day 4. Survival (or morbidity due to hind leg paralysis) was monitored as a study endpoint. […] Five treatment-naïve mice were also administered 5T33P cells (1×10^7) on day 93 as a control for tumor development.
Tumor-bearing mice were monitored daily for hind leg paralysis, signs of overt disease progression and mortality.
Levels of BM myeloma cells and hind leg paralysis or survival were assessed as study endpoints.
Control mice received PBS (0.2 mL).

[2] = system: murine EG7-OVA lymphoma; test: EG7-OVA lymphoma primary subcutaneous tumor growth in C57BL/6 mice (Example 27); type: in vivo; settings: ALT-803 0.415 or 0.83 mg/kg, rhIL-15 0.06 mg/kg, four i.v. injections
Method: To evaluate the effect of ALT-803 when administered via intravenous (i.v.) injection in multi-dose regimen on primary subcutaneous tumor growth of murine EG7-OVA lymphoma in C57BL/6 mice the following studies were carried out. Four treatment groups, ALT-803 (0.415 and 0.83 mg/kg), recombinant human interleukine-15 (rhIL-15, 0.06 mg/kg) and PBS (control), were examined in the study (Table 1). Female C57BL/6 mice (8-10 weeks old) were injected subcutaneously (s.c.) with EG7-OVA (1×10^6 cells in 100 μl PBS) on study day (SD) 0. PBS (n=5), rhIL-15 (n=5) or ALT-803 (n=5) were administered i.v. on SD 1, 4, 8, and 11 post EG7-OVA tumor cell injection. Tumors (width and length) were measured over the course of study. Tumor volume was the primary end point of the study.
Female C57BL/6 mice were injected s.c. with EG7-OVA (1×10^6 cells/mouse) on study day 0. […] During the study, mouse body weight and tumor width and length were measured and recorded.
The length (mm) and width (mm) of the tumors were measured and recorded. […]
Data were analyzed by ANOVA using GraphPad Prism Version 4.03. […] Tumor growth inhibition (TGI) was calculated using the following equation: TGI (%)=(Vcontrol−Vtreated)/Vcontrol×100, where Vcontrol is the mean tumor volume of mice from the PBS or rhIL-15 treatment control, and Vtreated is the mean tumor volume of mice receiving test article treatment.

[3] = biological target: IL-15Rα; settings: cited from earlier work
[4] = system: human p53+ HLA-A2+ A375 melanoma cell line; settings: vs PBS; for effect on s.c. A375 tumor xenografts: Example 17, i.v., equivalent molar doses
Method: A375 human melanoma tumor cells (1×10^6) were injected s.c. into nude mice (5-6/group). […] The mice were treated three times a week for three weeks starting on study day 11 (FIG. 50A). A375-tumor bearing nude mice were also treated i.v. with 4 mg/kg T2M as in FIG. 50A (FIG. 50B). A375 tumor bearing nude mice were i.v. with equivalent molar doses of IL-15 (0.2 mg/kg), T2M2 (2 mg/kg) or PBS (FIG. 50C). Tumors were measured every other day and tumor volumes (mean±SEM) were plotted.
To determine the therapeutic effects of the T2 protein, we examined antitumor activity in a primary tumor growth model with the human p53+ HLA-A2+A375 melanoma cell line in nude mice. Tumor cells were injected subcutaneously into nude mice and tumors were allowed to grow to 100 mm 3 before treatment began. […] The mice were treated every other day for one week (3 injections) followed by a 9 day rest period and then every other day for an additional week (3 injections). During the study, tumor growth was measured and the tumor volumes were plotted (FIG. 27).
The antitumor activity of these complexes was further examined in the subcutaneous A375 xenograft model in nude mice.

[5] = system: NK cells and CD8 T-cells; test: Immunostimulatory activity in C57BL/6 mice (NK cells, CD8 T cells, WBC, spleen weight); type: in vivo
Method: Changes in the percentage of peripheral blood mononuclear cells (PBMC) CD8^+ and NKp46^+ cells were assessed flow cytometry as shown in FIG. 48B. PBMCs were also used to assess NK cell activity based on lysis of NK-sensitive Yac-1 target cells in a calcein release assay as shown in FIG. 48C.
On study day 4, the percentage of PBMC CD8^+ and NKp46^+ cells were assessed by flow cytometry (FIG. 49A). Nude mice were treated i.v. with IL15N72D/IL15Rα-Fc (0.2 mg/kg) or T2M2 (2 mg/kg) of study day 1. On day 4 and 7 post treatment, the percentage of PBMC NKp46^+ cells was assessed by flow cytometry (FIG. 49B). […]
Mice were i.v. injected on day 1 and 4 with the fusion proteins at an amount equivalent to a 2.5 μg dose of IL-15. On day 8, blood cells and splenocytes were collected, stained for CD8 T-cells and NK cells, and analyzed by flow cytometry. […]
C57BL/6 mice (male, 6 wks of age, Harlan, Indianapolis, IN) were injected intravenously with a single dose of IL-15N72D:IL-15RαSu/Fc fusion complex (Alt-803) at 1 mg/kg or human IL-15 wt at 0.28 mg/kg (molar equivalent dose), respectively, or PBS as a negative control. […] The stained cells were analyzed on a FACScan flow cytometer (BD Bioscience, San Jose, CA). […]

[6] = system: 32Dβ cells; settings: as disclosed in WO2008143794; cited from earlier work
[7] = system: 32Dβ cells; test: 32Dβ cell proliferation assay (WST-1), IL-15 biological activity; type: cell-based; settings: hIL-15 wild-type domain, 48 h; read-out: half-maximal stimulation (EC50)
Method: The biological activity of the IL-15 domain of the T2 molecules was further characterized in proliferation assays using the cytokine-dependent 32Dβ cell line. […] Cell proliferation reagent WST-1 (Roche Applied Science) was added during the last 4 h of cell growth according to the manufacturer's procedures. Conversion of WST-1 to the colored formazan dye by metabolically active cells was determined through absorbance measurements at 440 nm.
Cell proliferation assays—Cell proliferation was measured as previously described (25). Briefly, 32Dβ cells (1×10^5 cells/well) were incubated with increasing concentrations of scTCR/hIL-15 or scTCR/hIL-15 muteins in the presence or absence of an equal molar concentration of scTCR/hIL-15RαSu for 48 h at 37° C. Cell proliferation reagent WST-1 (Roche Applied Science, Indianapolis, IN) was added during the last 4 h of cell growth according to the manufacturer's procedures. Conversion of WST-1 to the colored formazan dye by metabolically active cells was determined through absorbance measurements at 440 nm. The EC50 was determined with the dose-response curve generated from the experimental data by nonlinear regression variable slope curve-fitting with Prizm4 software (GraphPad Software, La Jolla, CA). […]

[8] = system: p53 (aa264-272)/HLA-A2.1; test: Flow cytometry staining of p53 (aa264-272) peptide-loaded HLA-A2-positive T2 cells; type: binding, human; settings: 320 nM dimeric complex; vs c264scTCR/huIL15+c264scTCR/huIL15RαSushi complex
Method: The fusion protein complexes comprising IL-15 variants as described in the table immediately above were characterized for their ability to bind the TCR-specific antigen, p53 (aa264-272)/HLA-A2.1. To generate cells presenting p53 (aa264-272)/HLA-A2.1, HLA-A2.1-positive T2 cells (2×10^6/mL) were loaded with 20 μM p53 (aa264-272) peptide at 37° C. in the presence of 1×PLE (Altor Bioscience) for 2-3 hrs. T2 cells that were not incubated with peptide and 321313 cells expressing IL-2/15Rβγc serve as controls. […] These complexes were generated by incubating 160 nM of purified c264scTCRhuIL15 fusion protein and 160 nM of purified c264scTCRhuIL15Rα Sushi fusion protein at 4 C for 3 hours. Following staining, cells were washed once with washing buffer (PBS containing 0.5% BSA and 0.05% sodium azide) and stained with 0.5 μg of biotinylated mouse monoclonal anti-human TCR Cβ antibody (BF1) in 100 μL of washing buffer for 30 min at 4 C. Cells were washed once and stained with 0.5 μg of R-Phycoerythrin conjugated streptavidin in 100 μL of washing buffer for 30 min at 4 C. […]
For the OT1scTCR fusion protein complexes, murine lymphoma EL4 cells were pulsed with OVA peptide at 100 μg/ml and PLE at 37° C. for 6 h. […] The samples were washed two times and analyzed on a FACScan flow cytometer using CellQuest software (BD Biosciences, San Jose, CA). […]

[9] = biological target: T1, IL-15Rβγc receptors (UniProt P14784+P34902); test: IL-15Rβγc receptor binding of IL-15 variants and fusion complexes on 32Dβ cells (flow cytometry); settings: 320 nM fusion protein complex
T1 construct: expressed in transfected cells; host or cells: 32Dβ cells
T1 sequence (P14784 27-551): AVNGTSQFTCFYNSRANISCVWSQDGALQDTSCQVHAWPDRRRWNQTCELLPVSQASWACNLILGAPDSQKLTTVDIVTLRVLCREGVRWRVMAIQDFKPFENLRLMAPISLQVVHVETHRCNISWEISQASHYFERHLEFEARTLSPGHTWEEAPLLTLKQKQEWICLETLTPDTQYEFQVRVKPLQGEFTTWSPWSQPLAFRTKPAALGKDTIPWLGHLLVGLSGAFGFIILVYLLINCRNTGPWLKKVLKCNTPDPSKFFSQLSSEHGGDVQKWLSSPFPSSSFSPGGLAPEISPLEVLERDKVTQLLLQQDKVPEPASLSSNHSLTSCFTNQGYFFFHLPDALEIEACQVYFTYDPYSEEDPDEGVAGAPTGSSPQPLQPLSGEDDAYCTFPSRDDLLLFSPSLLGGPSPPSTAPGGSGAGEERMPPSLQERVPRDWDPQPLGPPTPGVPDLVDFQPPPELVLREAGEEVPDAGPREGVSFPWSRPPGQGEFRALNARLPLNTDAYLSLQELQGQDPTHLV
T1 sequence (P34902 23-369): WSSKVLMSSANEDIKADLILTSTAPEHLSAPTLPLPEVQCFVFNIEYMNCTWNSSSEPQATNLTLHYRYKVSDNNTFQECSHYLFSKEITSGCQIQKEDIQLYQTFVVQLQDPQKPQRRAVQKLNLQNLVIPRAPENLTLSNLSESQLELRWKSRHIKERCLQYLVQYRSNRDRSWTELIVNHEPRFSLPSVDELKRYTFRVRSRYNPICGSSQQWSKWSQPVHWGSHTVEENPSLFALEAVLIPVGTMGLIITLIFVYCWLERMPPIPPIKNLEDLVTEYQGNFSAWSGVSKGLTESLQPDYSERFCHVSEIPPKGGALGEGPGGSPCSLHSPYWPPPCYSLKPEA
Method: The fusion protein complexes comprising IL-15 variants as described in the table immediately above were characterized for their ability to bind the TCR-specific antigen, p53 (aa264-272)/HLA-A2.1. To generate cells presenting p53 (aa264-272)/HLA-A2.1, HLA-A2.1-positive T2 cells (2×10^6/mL) were loaded with 20 μM p53 (aa264-272) peptide at 37° C. in the presence of 1×PLE (Altor Bioscience) for 2-3 hrs. T2 cells that were not incubated with peptide and 321313 cells expressing IL-2/15Rβγc serve as controls. […] These complexes were generated by incubating 160 nM of purified c264scTCRhuIL15 fusion protein and 160 nM of purified c264scTCRhuIL15Rα Sushi fusion protein at 4 C for 3 hours. Following staining, cells were washed once with washing buffer (PBS containing 0.5% BSA and 0.05% sodium azide) and stained with 0.5 μg of biotinylated mouse monoclonal anti-human TCR Cβ antibody (BF1) in 100 μL of washing buffer for 30 min at 4 C. Cells were washed once and stained with 0.5 μg of R-Phycoerythrin conjugated streptavidin in 100 μL of washing buffer for 30 min at 4 C. Cells were washed and resuspended for analysis by flow cytometry.
The binding of the proteins was in turn detected with biotinylated (BF1) 8A3.31 mAb for 15 min and SA-PE (5 μg/ml each) for 15 min. The stained cells were analyzed by flow cytometry as described above.

[10] = biological target: TNF-α (Homo sapiens, UniProt P01375); settings: cited from earlier work
Sequence of TNF-α (P01375 77-233 limits assumed): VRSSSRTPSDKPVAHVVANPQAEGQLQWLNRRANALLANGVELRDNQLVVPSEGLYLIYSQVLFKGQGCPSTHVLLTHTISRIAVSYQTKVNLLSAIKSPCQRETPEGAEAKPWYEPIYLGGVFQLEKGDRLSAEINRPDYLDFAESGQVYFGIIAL

Sequence of IL-15Rα (Q13261 31-95 limits assumed): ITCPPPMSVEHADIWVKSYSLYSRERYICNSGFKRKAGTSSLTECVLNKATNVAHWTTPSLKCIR

Substance: IL-15: recombinant human wild-type IL-15
- reduction in BM myeloma cells compared to PBS controls [1]: 53%
- EG7-OVA tumor growth vs PBS [2]: significantly inhibited
- Kd ([3]; in solution, Bouchaud et al. 2008, read-out: Kd of complex of soluble IL-15RαSu and IL-15): 0.1 nM
- Kd ([3]; read-out: Equilibrium dissociation constant (KD) of hIL-15 with hIL-15Rα): ~0.01 nM
- Kd ([3]; read-out: affinity of IL-15Rα for hIL-15): 0.038 nM
- effect on s.c. A375 tumor xenografts [4]: no effect
- WBC counts, spleen weight and blood NK and CD8+ T cell populations ([5]; Example 17, single i.v. dose at molar equivalent of IL-15 1 mg/kg, day 4): little or no effect
- expansion of NK and CD8+ T cells in blood and spleen ([5]; Example 22, single i.v. dose, complex 1 mg/kg or IL-15 wt 0.28 mg/kg, four days): no significant effect

Substance: Mutant 6: human IL-15 variant, N72D
- increase of IL-15 biological activity by the substitution [6]: 5 to 10 fold

Substance: c264scTCR/huIL15: c264scTCR fused to the N-terminus of hIL-15
- EC50 [7]: ~0.3 nM
- effect on s.c. A375 tumor xenografts [4]: no effect

Substance: c264scTCR/huIL15D8A+c264scTCR/huIL15Rα Sushi complex: dimeric fusion protein complex with IL-15 D8A variant
- specific staining of p53 peptide-loaded T2 cells [8]: equivalent activity
- binding to the IL-15Rβγc receptors present on the 32Dβ cells [9]: do not show binding activity

Substance: c264scTCR/huIL15D8N+c264scTCR/huIL15RαSushi complex: dimeric fusion protein complex with IL-15 D8N variant
- specific staining of p53 peptide-loaded T2 cells [8]: equivalent activity
- binding to the IL-15Rβγc receptors present on the 32Dβ cells [9]: do not show binding activity

Substance: c264scTCR/huIgG1: p53 (aa 264-272) single-chain TCR fused to human IgG1
- A375 tumor growth ([4]; Example 10, i.v. 1.6 mg/kg T2 or c264scTCR/huIL2, 3 mg/kg 264scTCR/huIgG1): inhibited

Substance: etanercept
- potency at inhibiting TNF-α activity relative to monomeric sTNFR [10]: up to 1,000 times
- serum half-life relative to the monomeric form [10]: five-fold longer serum half-life
